The record followed here is publication PMC6131557, “Selective Cytotoxicity of Dihydroorotate Dehydrogenase Inhibitors to Human Cancer Cells Under Hypoxia and Nutrient-Deprived Conditions” (Frontiers in Pharmacology, 2018).

The subject of data set [1] is Complex I. The data set is described as follows: NADH dehydrogenase (complex I) activity, bovine mitochondria. The format is biochemical. As to conditions: at 5 μM. In short, it runs like this: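 Bovine mitochondrial fractions served as enzyme source. NADH-cytochrome c reductase (complexes I–III) and succinate-cytochrome c reductase (complexes II–III) activities were measured by established published methods.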

The test system of data set [2] is HBC-5. The data set is described as follows: 39-cancer cell panel assay: HBC-5. It counts as cell-based. The conditions noted are these: Homo sapiens, HBC5, Br.
The test system of data set [3] is RXF-631L. The data set is described as follows: 39-cancer cell panel assay: RXF-631L. As to conditions: Homo sapiens, Re. It counts as cell-based.
The subject of data set [4] is MKN28. The experiment in a line: 39-cancer cell panel assay: MKN28. It counts as cell-based. As to conditions: Homo sapiens, MKN-28, St.
Data set [5] has as its target T1, Complex II (Bos taurus, UniProt P35720+Q3T189+Q95123).
T1 construct: from tissue; host or cells: bovine mitochondrial fraction / sub-mitochondrial particles
The data set is described as follows: Succinate:quinone reductase (complex II) activity, bovine mitochondria. It counts as biochemical.

The test system of data set [6] is HDF cells. The data set is described as follows: Cytotoxicity assay (Cell Counting Kit-8 / WST-8) on HDF cells. It counts as cell-based. As to conditions: Homo sapiens. As for the experimental part: For hypoxia and nutrient-deprived culture conditions, cells were incubated under 1% oxygen in glucose and glutamine-free DMEM (Gibco) without FBS.
DLD-1 or HDF cells were seeded at 2.5 × 10^4 cells/well on a 96-well plate with normal medium, and cultured overnight under normal culture condition. The cells were washed with PBS and the medium was replaced to either normal medium or glucose and glutamine-free DMEM without FBS. Test compounds or DMSO as a control were added to the wells. The cells in normal medium were cultured under normal culture conditions, while cells in nutrient-deprived medium were cultured under hypoxia condition. After 24 or 48 h incubation, the cells were washed with PBS, 100 μl of fresh normal medium, and 10 μl of Cell Counting Kit-8 solution (Donjindo, Japan) was added to each well. After 3 h incubation under normal culture condition, the absorbance was measured at 450 nm using SpectraMax M2e-TUY microplate reader (Molecular Devices). Cell viability of test wells was calculated based on absorbance of control wells containing DMSO according to manufacturer’s protocol.
Background: Tetrazolium assays rely on reduction of a dye to a coloured formazan, in cell work by metabolically active cells.

Data set [7] relates to SNB-78. The data set is described as follows: 39-cancer cell panel assay: SNB-78. As to conditions: Homo sapiens, CNS. The format is cell-based.
Data set [8] has as its system MDA-MB-231. The data set is described as follows: 39-cancer cell panel assay: MDA-MB-231. The format is cell-based. As to conditions: Homo sapiens, Br.
Data set [9] in a line: Cytotoxicity assay (Cell Counting Kit-8 / WST-8) on DLD-1 cells. It counts as cell-based, human. The conditions noted are these: human, DLD-1 colorectal adenocarcinoma cells; DLD-1, original medium, normal oxygen, 100 μM, 24 h.
[10] abbreviates: read-out: IC50 (μM) HDF (24 h) Hypoxia nutrient (-), hypoxia (1% oxygen), nutrient (-).
Where [11] appears, read: read-out: IC50 (μM) HDF (24 h) Normoxia nutrient (+), normoxia, nutrient (+).

Structures are written as SMILES. Like-named read-outs stand apart in the source and are kept apart here. A value given as a limit tells only on which side of the number the result lay.

T1 sequence (P31039 45-665 partner limits assumed): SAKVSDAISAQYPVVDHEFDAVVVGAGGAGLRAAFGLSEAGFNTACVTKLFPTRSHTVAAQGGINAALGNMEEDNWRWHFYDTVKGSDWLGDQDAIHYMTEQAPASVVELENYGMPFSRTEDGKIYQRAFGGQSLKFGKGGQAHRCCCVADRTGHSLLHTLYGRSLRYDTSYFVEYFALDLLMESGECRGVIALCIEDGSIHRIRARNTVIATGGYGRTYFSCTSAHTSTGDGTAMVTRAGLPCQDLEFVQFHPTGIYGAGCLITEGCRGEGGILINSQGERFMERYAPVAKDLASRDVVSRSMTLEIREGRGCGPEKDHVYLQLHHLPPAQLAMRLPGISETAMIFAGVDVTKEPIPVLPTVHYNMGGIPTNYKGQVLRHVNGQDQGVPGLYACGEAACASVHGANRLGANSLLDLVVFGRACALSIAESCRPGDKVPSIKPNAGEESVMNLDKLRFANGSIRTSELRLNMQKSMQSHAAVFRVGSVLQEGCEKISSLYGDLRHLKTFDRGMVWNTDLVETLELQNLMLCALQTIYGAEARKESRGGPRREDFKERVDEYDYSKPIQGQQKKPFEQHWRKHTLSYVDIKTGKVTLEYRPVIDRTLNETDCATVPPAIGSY
T1 sequence (Q3T189 29-280): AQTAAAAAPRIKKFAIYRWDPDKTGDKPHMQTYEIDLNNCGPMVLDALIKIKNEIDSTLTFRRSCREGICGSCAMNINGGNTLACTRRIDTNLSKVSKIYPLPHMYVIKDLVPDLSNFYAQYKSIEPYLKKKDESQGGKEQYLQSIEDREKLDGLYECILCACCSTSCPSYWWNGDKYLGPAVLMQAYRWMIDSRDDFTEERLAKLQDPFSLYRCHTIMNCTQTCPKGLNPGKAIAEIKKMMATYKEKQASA
T1 sequence (P35720 30-169): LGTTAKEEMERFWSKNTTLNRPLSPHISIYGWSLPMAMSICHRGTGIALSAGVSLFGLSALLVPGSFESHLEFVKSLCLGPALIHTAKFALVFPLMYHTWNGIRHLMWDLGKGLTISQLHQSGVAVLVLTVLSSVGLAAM
T1 sequence (Q95123 56-158): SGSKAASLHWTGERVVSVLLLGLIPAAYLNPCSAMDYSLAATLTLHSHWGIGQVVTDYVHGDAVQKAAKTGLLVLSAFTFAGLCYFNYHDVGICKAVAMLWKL

Consider `C/C(=C\Cc1c(O)c(Cl)c(C)c(C=O)c1O)CC/C=C(\C)[C@@H]1CC(=O)C(C)(C)O1` [Compound 1, ascofuranone], for which the “Inhibition (%) Complex I” value in data set [1] amounted to 11 ± 5.8%. Besides, the GI50 (usually the concentration giving 50% growth inhibition) in data set [2] came out at 28 µM; in data set [3], 12 µM; in data set [4], 9.7 µM; in [7], 23 µM; in data set [8] it was 7.4 µM. Besides, 5 µM produced 1.5 ± 7.6% inhibition in data set [5]. In addition, the IC50 (usually the concentration needed to halve the response being measured) in data set [6] (setting [10]) was 1.5 ± 0.18 µM; in [6] (setting [11]), greater than 100 µM. Further, in data set [9], the viability (as a rule, the share of living cells, or the viability signal relative to a control) at 24 h, 100 µM was roughly 80%.

As to `CC(C)=CCC/C(C)=C/CC/C(C)=C/Cc1c(O)c(Cl)c(C)c(C=O)c1O` [Compound 8], the “Inhibition (%) Complex I” value in data set [1] is 43 ± 1.8%. Also, the GI50 in data set [2] was determined as 16 µM; in data set [3], 11 µM; in data set [4] it was 1.3 µM; in [7], 16 µM; in [8], 2.8 µM. The inhibition (in general, the change of the read-out against control, counted positive when it falls) at 5 µM in [5] was 8.2 ± 4.9%. In addition, the figures for the IC50 in data set [6] (setting [10]) and in [6] (setting [11]) were 0.16 ± 0.023 µM and 61 ± 5.3 µM, respectively.
